The Kd is the equilibrium constant for the complex coming apart. Low values mean a tighter complex, high ones a looser complex. For orientation: stoichiometry N means the number of molecules, sites or subunits per partner or assembly.

The target of assay [1] is T1, V1 subcomplex of the V-ATPase (Saccharomyces cerevisiae, UniProt P16140+P17255).
T1 construct: gene VMA1
Kind of assay: fluorescence titration (TNP-ATP emission). As to conditions: pH 7.9, 10.0 °C, 25 mM Tris-HCl, 0.15 M NaCl, 1 mM MgCl2, 0.5 mM DTT, 0.25 μM V1; nucleotide site.

Assay [2] concerns the target V-ATPase from S. cerevisiae, intact, detergent solubilized (A3B3CDE3FG3Hac8c'c''def), 3xFLAG on the A-subunit (S. cerevisiae) (UniProt P16140). The experiment in a line: cryo-EM structure.

“2',3'-O-(2,4,6-trinitrophenyl) adenosine 5'-triphosphate [TNP-ATP]” returned a Kd in assay [1] of 160 ± 50 nM.
As to “SidK, full length (residues 1 to 573) (natural protein)”, the stoichiometry N in assay [2] amounted to 3.

Source of the values: article PMC5469503 (PLoS Pathogens, 2017).
